# Key:
# Macrophage [1] = test: Antiinflammatory activity in Escherichia coli O6:K2:H1-induced human M2 macrophage assessed as change in 7-HDHA level at 1 uM preincubated for 10 mins followed by Escherichia coli O6:K2:H1-stimulation and measured after 180 mins by UPLC-MS/MS analysis relative to control; format: functional
# Macrophage [2] = test: Antiinflammatory activity in Escherichia coli O6:K2:H1-induced human M2 macrophage assessed as change in 15-HEPE level at 1 uM preincubated for 10 mins followed by Escherichia coli O6:K2:H1-stimulation and measured after 180 mins by UPLC-MS/MS analysis relative to control; format: functional
# Macrophage [3] = test: Antiinflammatory activity in Escherichia coli O6:K2:H1-induced human M1 macrophage assessed as change in total LTB4 level at 1 uM preincubated for 10 mins followed by Escherichia coli O6:K2:H1-stimulation and measured after 180 mins by UPLC-MS/MS analysis relative to control; format: functional
# Macrophage [4] = test: Antiinflammatory activity in Escherichia coli O6:K2:H1-induced human M1 macrophage assessed as change in LTB4 level at 10 uM preincubated for 10 mins followed by Escherichia coli O6:K2:H1-stimulation and measured after 180 mins by UPLC-MS/MS analysis relative to control; format: functional
# Macrophage [5] = test: Antiinflammatory activity in Escherichia coli O6:K2:H1-induced human M1 macrophage assessed as change in PGE2 level at 1 uM preincubated for 10 mins followed by Escherichia coli O6:K2:H1-stimulation and measured after 180 mins by UPLC-MS/MS analysis relative to control; format: functional
# Macrophage [6] = test: Antiinflammatory activity in Escherichia coli O6:K2:H1-induced human M1 macrophage assessed as change in 12-HETE level at 1 uM preincubated for 10 mins followed by Escherichia coli O6:K2:H1-stimulation and measured after 180 mins by UPLC-MS/MS analysis relative to control; format: functional
# Macrophage [7] = test: Antiinflammatory activity in Escherichia coli O6:K2:H1-induced human M1 macrophage assessed as change in PGF2alpha level at 10 uM preincubated for 10 mins followed by Escherichia coli O6:K2:H1-stimulation and measured after 180 mins by UPLC-MS/MS analysis relative to control; format: functional
# Macrophage [8] = test: Antiinflammatory activity in Escherichia coli O6:K2:H1-induced human M1 macrophage assessed as change in 5-HEPE level at 10 uM preincubated for 10 mins followed by Escherichia coli O6:K2:H1-stimulation and measured after 180 mins by UPLC-MS/MS analysis relative to control; format: functional
# Macrophage [9] = test: Antiinflammatory activity in Escherichia coli O6:K2:H1-induced human M1 macrophage assessed as change in 18-HEPE level at 1 uM preincubated for 10 mins followed by Escherichia coli O6:K2:H1-stimulation and measured after 180 mins by UPLC-MS/MS analysis relative to control; format: functional
# Macrophage [10] = test: Antiinflammatory activity in Escherichia coli O6:K2:H1-induced human M2 macrophage assessed as change in PGD2 level at 10 uM preincubated for 10 mins followed by Escherichia coli O6:K2:H1-stimulation and measured after 180 mins by UPLC-MS/MS analysis relative to control; format: functional
# Macrophage [11] = test: Antiinflammatory activity in Escherichia coli O6:K2:H1-induced human M2 macrophage assessed as change in 5-HEPE level at 1 uM preincubated for 10 mins followed by Escherichia coli O6:K2:H1-stimulation and measured after 180 mins by UPLC-MS/MS analysis relative to control; format: functional
# Macrophage [12] = test: Antiinflammatory activity in Escherichia coli O6:K2:H1-induced human M1 macrophage assessed as change in PGE2 level at 10 uM preincubated for 10 mins followed by Escherichia coli O6:K2:H1-stimulation and measured after 180 mins by UPLC-MS/MS analysis relative to control; format: functional
# Macrophage [13] = test: Antiinflammatory activity in Escherichia coli O6:K2:H1-induced human M2 macrophage assessed as change in 5-HETE level at 1 uM preincubated for 10 mins followed by Escherichia coli O6:K2:H1-stimulation and measured after 180 mins by UPLC-MS/MS analysis relative to control; format: functional
# Macrophage [14] = test: Antiinflammatory activity in Escherichia coli O6:K2:H1-induced human M2 macrophage assessed as change in […] level at 10 uM preincubated for 10 mins followed by Escherichia coli O6:K2:H1-stimulation and measured after 180 mins by UPLC-MS/MS analysis relative to control; format: functional
# Macrophage [15] = test: Antiinflammatory activity in Escherichia coli O6:K2:H1-induced human M1 macrophage assessed as change in 4-HDHA level at 1 uM preincubated for 10 mins followed by Escherichia coli O6:K2:H1-stimulation and measured after 180 mins by UPLC-MS/MS analysis relative to control; format: functional
# Macrophage [16] = test: Antiinflammatory activity in Escherichia coli O6:K2:H1-induced human M1 macrophage assessed as change in […] level at 10 uM preincubated for 10 mins followed by Escherichia coli O6:K2:H1-stimulation and measured after 180 mins by UPLC-MS/MS analysis relative to control; format: functional
# Macrophage [17] = test: Antiinflammatory activity in Escherichia coli O6:K2:H1-induced human M2 macrophage assessed as change in PGE2 level at 1 uM preincubated for 10 mins followed by Escherichia coli O6:K2:H1-stimulation and measured after 180 mins by UPLC-MS/MS analysis relative to control; format: functional
# [18] = target: T1, Bifunctional epoxide hydrolase 2 (Homo sapiens, UniProt P34913); test: Inhibition of full length human soluble epoxide hydrolase (1 to 555 residues) expressed in Escherichia coli BL21(DE3) using non-fluorescent PHOME as substrate preincubated for 30 mins followed by substrate addition and measured for 30 mins by fluorescence based assay
# T1 sequence (P34913 whole entry): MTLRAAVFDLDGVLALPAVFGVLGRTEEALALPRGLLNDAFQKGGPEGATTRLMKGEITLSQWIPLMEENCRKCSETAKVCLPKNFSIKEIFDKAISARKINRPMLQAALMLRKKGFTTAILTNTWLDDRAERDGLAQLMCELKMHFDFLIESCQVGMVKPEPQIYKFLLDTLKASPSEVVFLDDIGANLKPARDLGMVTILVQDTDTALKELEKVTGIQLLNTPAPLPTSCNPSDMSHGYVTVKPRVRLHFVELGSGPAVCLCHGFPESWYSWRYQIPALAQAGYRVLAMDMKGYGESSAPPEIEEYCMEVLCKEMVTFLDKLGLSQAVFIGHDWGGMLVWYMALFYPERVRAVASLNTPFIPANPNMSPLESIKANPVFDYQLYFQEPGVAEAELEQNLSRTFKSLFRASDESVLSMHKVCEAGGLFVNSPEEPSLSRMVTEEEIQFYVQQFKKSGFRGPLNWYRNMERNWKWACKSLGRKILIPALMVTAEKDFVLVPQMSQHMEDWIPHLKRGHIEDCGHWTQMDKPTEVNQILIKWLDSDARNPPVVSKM
# Macrophage [19] = test: Antiinflammatory activity in Escherichia coli O6:K2:H1-induced human M1 macrophage assessed as change in total LTB4 level at 10 uM preincubated for 10 mins followed by Escherichia coli O6:K2:H1-stimulation and measured after 180 mins by UPLC-MS/MS analysis relative to control; format: functional
# Macrophage [20] = test: Antiinflammatory activity in Escherichia coli O6:K2:H1-induced human M1 macrophage assessed as change in 15-HETE level at 1 uM preincubated for 10 mins followed by Escherichia coli O6:K2:H1-stimulation and measured after 180 mins by UPLC-MS/MS analysis relative to control; format: functional
smiles,measurement,setting,value
O=C(Cc1ccc(Oc2nc3ccccc3s2)cc1F)NCCc1ccc(F)cc1,Activity,Macrophage [1],94%
same,Activity,Macrophage [2],81%
same,Activity,Macrophage [3],132%
same,Activity,Macrophage [4],11%
same,Activity,Macrophage [5],109%
same,Activity,Macrophage [6],99%
same,Activity,Macrophage [7],80%
same,Activity,Macrophage [8],65%
same,Activity,Macrophage [9],74%
same,Activity,Macrophage [10],64%
same,Activity,Macrophage [11],93%
same,Activity,Macrophage [12],77%
same,Activity,Macrophage [13],68%
same,Activity,Macrophage [14],26%
same,Activity,Macrophage [15],88%
same,Activity,Macrophage [16],82%
same,Activity,Macrophage [17],61%
same,IC50,[18],300 nM
same,Activity,Macrophage [19],28%
same,Activity,Macrophage [20],102%
